Consider 12 compounds from patent publication US20160154122A1, “Scintillating Organic Materials and Methods For Detecting Neutron and Gamma Radiation” (Nanoptics, Incorporated, priority 2011, published 2016).

Data set [1] is described as follows: Solubility of base dye in polystyrene. The class given is physicochemical. As to conditions: base dye measured to be soluble in polystyrene.
The conditions of data set [2]: result in words; cited from earlier work.
On data set [3], the source says: Salts of lithium can have a variety of properties, including one or more of the following: many salts of lithium are very chemically reactive; others are extremely insoluble; some are not produced in high volume and are, therefore, expensive to use at high concentration; and others have elements with moderate to high atomic numbers, causing quenching of the scintillation light.

For data set [4] the following is noted: result in words; cited from earlier work. The source holds these as a separate data set.

Where two headings read alike, the source gives them in different places.

The Solubility is how much of the substance goes into solution per volume. A lower Solubility goes with a poorly soluble substance. Take `Cc1cccc2ccccc12` [1-Methyl Naphthalene]: the “Solubility” value in data set [1] was over 1000 mM. In the case of `c1ccc(-c2cnc(-c3ccccc3)o2)cc1` [2,5 Diphenyloxazole], the “Solubility” value in data set [1] is over 1500 mM. The same measure, in the same setting: the result for `Cc1ccc2ccccc2c1` [2-Methyl Naphthalene] reads over 1000 mM. As for `CN1CCN(C)C1=O` [DMI, 1,3 Dimethyl 2-Imidazolidone], in data set [2], the Miscibility with water entry is on record as “miscible”. As for `O=C([O-])c1ccccc1.[Li+]` [Lithium Benzoate], in data set [3], the “Percentage wt of Lithium in Solution H2O” value is on record as 2.40 % wt/wt.

In the case of `[Cl-].[Li+]` [Lithium Chloride], in data set [3], the “Solubility of Compound (wt %) DIM” value is given as over 15.0 wt %, the “Solubility of Compound (wt %) DMSO” value is reported as 10.20 wt % and the “Solubility of Compound (wt %) H2O” value was 83.50 wt %. In the case of `[Li+].[O-][Cl+3]([O-])([O-])[O-]` [Lithium Perchlorate], the “Percentage wt of Lithium in Solution DMSO” value in data set [3] (achievable lithium ions in DMSO) was found to be 2.05 % wt/wt. In addition, in data set [3] (achievable lithium ions in H2O), the “Percentage wt of Lithium in Solution H2O” value is 3.70 % wt/wt. For the same compound, the “Solubility of Compound (wt %) DMSO” value in data set [3] (maximum solubility in DMSO) was 31.50 wt %. Moreover, the “Solubility of Compound (wt %) H2O” value in data set [3] (maximum solubility in H2O) turned out to be 56.10 wt %.

Turning to `C=CN1CCCC1=O` [N-Vinyl-2-Pyrrolidone], the Hygroscopic result in data set [4] was “Yes”. For `CN1CCCC1=O` [NMP, Methylpyrrolidone], the Miscibility with water result in data set [2] is “miscible”. With `c1ccc2ccccc2c1` [Naphthalene], in data set [1], the “Solubility” value is over 1000 mM.

Regarding `Cc1ccc(C)cc1` [p-Xylene], the “Solubility” value in data set [1] is over 1000 mM.

Regarding `Cc1ccc(C)c(C)c1` [pseudocumene], in data set [1], the “Solubility” value is over 1000 mM.
